Like-named read-outs stand apart in the source and are kept apart here.
Columns and labels:
[1] = target: AMPK(α2) (Homo sapiens (Human), UniProt P54646); test: Kinome binding analysis at 100 nM, AMPK(α2); settings: AMPK-alpha2
[2] = target: 468 kinases (Homo sapiens, UniProt Q9NY57); test: biochemical; type: binding; settings: YANK2; read-out: % Inhibition @ 100 nM
[3] = target: 468 kinases (Homo sapiens, UniProt Q8NEV4); test: biochemical; type: binding; settings: MYO3A; read-out: % Inhibition @ 100 nM
[4] = target: 468 kinases (Homo sapiens, UniProt O95747); test: biochemical; type: binding; settings: OSR1; read-out: % Inhibition @ 100 nM
[5] = target: 468 kinases (Homo sapiens, UniProt P08069); test: biochemical; type: binding; settings: IGFIR; read-out: % Inhibition @ 100 nM
[6] = target: 468 kinases (Homo sapiens, UniProt Q13976); test: biochemical; type: binding; settings: PRKG1; read-out: % Inhibition @ 100 nM
[7] = target: 468 kinases (Homo sapiens, UniProt Q92772); test: biochemical; type: binding; settings: CDKL2; read-out: % Inhibition @ 100 nM
[8] = target: 468 kinases (Homo sapiens, UniProt P16591); test: biochemical; type: binding; settings: FER; read-out: % Inhibition @ 100 nM
[9] = target: 468 kinases (Homo sapiens, UniProt Q15569); test: biochemical; type: binding; settings: TESK1; read-out: % Inhibition @ 100 nM
[10] = target: 468 kinases (Homo sapiens, UniProt Q9BVS4); test: biochemical; type: binding; settings: RIOK2; read-out: % Inhibition @ 100 nM
[11] = target: 468 kinases (Homo sapiens, UniProt P51812); test: biochemical; type: binding; settings: read-out: % Inhibition @ 100 nM
[12] = target: 468 kinases (Homo sapiens, UniProt Q00535); test: biochemical; type: binding; settings: CDK5; read-out: % Inhibition @ 100 nM
[13] = target: 468 kinases (Homo sapiens, UniProt Q9NSY1); test: biochemical; type: binding; settings: BIKE; read-out: % Inhibition @ 100 nM
[14] = target: 468 kinases (Homo sapiens, UniProt Q16832); test: biochemical; type: binding; settings: DDR2; read-out: % Inhibition @ 100 nM
[15] = target: 468 kinases (Homo sapiens, UniProt P27448); test: biochemical; type: binding; settings: MARK3; read-out: % Inhibition @ 100 nM
[16] = target: 468 kinases (Homo sapiens, UniProt Q13233); test: biochemical; type: binding; settings: MAP3K1; read-out: % Inhibition @ 100 nM
[17] = target: 468 kinases (Homo sapiens, UniProt P43403); test: biochemical; type: binding; settings: ZAP70; read-out: % Inhibition @ 100 nM
[18] = target: 468 kinases (Homo sapiens, UniProt P10721, D816H); test: biochemical; type: binding; settings: KIT(D816H); read-out: % Inhibition @ 100 nM
[19] = system: 468 kinases; test: biochemical; type: binding; settings: for Number of kinases inhibited >90%: at 100 nM, of 468 kinases
[20] = target: 468 kinases (Homo sapiens, UniProt P24941); test: biochemical; type: binding; settings: CDK2; read-out: % Inhibition @ 100 nM
[21] = target: 468 kinases (Homo sapiens, UniProt Q9BRS2); test: biochemical; type: binding; settings: RIOK1; read-out: % Inhibition @ 100 nM
[22] = target: 468 kinases (Homo sapiens, UniProt P49759); test: biochemical; type: binding; settings: CLK1; read-out: % Inhibition @ 100 nM
[23] = target: 468 kinases (Homo sapiens, UniProt Q06418); test: biochemical; type: binding; settings: TYRO3; read-out: % Inhibition @ 100 nM
[24] = target: 468 kinases (Homo sapiens, UniProt P22694); test: biochemical; type: binding; settings: PKAC-beta; read-out: % Inhibition @ 100 nM
[25] = target: 468 kinases (Homo sapiens, UniProt P29317); test: biochemical; type: binding; settings: EPHA2; read-out: % Inhibition @ 100 nM
[26] = target: 468 kinases (Homo sapiens, UniProt P27361); test: biochemical; type: binding; settings: ERK1; read-out: % Inhibition @ 100 nM
[27] = target: 468 kinases (Homo sapiens, UniProt P41743); test: biochemical; type: binding; settings: PRKCI; read-out: % Inhibition @ 100 nM
[28] = target: 468 kinases (Homo sapiens, UniProt P15056); test: biochemical; type: binding; settings: BRAF; read-out: % Inhibition @ 100 nM
[29] = target: 468 kinases (Homo sapiens, UniProt P21860); test: biochemical; type: binding; settings: ERBB3; read-out: % Inhibition @ 100 nM
[30] = target: 468 kinases (Homo sapiens, UniProt O00329); test: biochemical; type: binding; settings: PIK3CD; read-out: % Inhibition @ 100 nM
[31] = target: 468 kinases (Homo sapiens, UniProt P28482); test: biochemical; type: binding; settings: ERK2; read-out: % Inhibition @ 100 nM
[32] = target: 468 kinases (Homo sapiens, UniProt P57059); test: biochemical; type: binding; settings: SIK; read-out: % Inhibition @ 100 nM

For `CCN(CC)CCNC(=O)c1c(C)[nH]c(/C=C2\C(=O)Nc3ccc(CCO)cc32)c1C` [Compound No. 10, (Z)—N-(2-(Diethylamino)ethyl)-5-((5-(2-hydroxyethyl)-2-oxoindolin-3-ylidene)methyl)-2,4-dimethyl-1H-pyrrole-3-carboxamide], the inhibition at 0.1 µM [1] was 64%, the inhibition at 0.1 µM [2] was 1% and the inhibition at 0.1 µM [3] was 0%. For the same compound, the inhibition at 0.1 µM [4] was 0%, the inhibition at 0.1 µM [5] was 0% and the inhibition at 0.1 µM [6] was 0%. For the same compound, the inhibition at 0.1 µM [7] was 10%, the inhibition at 0.1 µM [8] was 12% and the inhibition at 0.1 µM [9] was 10%. It also gave an inhibition at 0.1 µM [10] of 0%, an inhibition at 0.1 µM ([11]; RSK2(Kin.Dom.1-N-terminal)) of 39% and an inhibition at 0.1 µM ([11]; RSK2(Kin.Dom.2-C-terminal)) of 54%. The inhibition at 0.1 µM [12] was 0%, the inhibition at 0.1 µM [13] was 97.4% and the inhibition at 0.1 µM [14] was 12%. The inhibition at 0.1 µM [15] was 0%, the inhibition at 0.1 µM [16] was 0% and the inhibition at 0.1 µM [17] was 6%. For the same compound, the inhibition at 0.1 µM [18] was 6%, the “% Inhibition @ 100 nM” value ([19]; EGFR(L747-E749del, A750P)) was 0% and the “% Inhibition @ 100 nM” value ([19]; EGFR(L747-S752del, P753S)) was 23%. The “% Inhibition @ 100 nM” value ([19]; EGFR(L747-T751del,Sins)) was 37%, the “% Inhibition @ 100 nM” value ([19]; FLT3(ITD)) was 99.3% and the “% Inhibition @ 100 nM” value ([19]; FLT3(ITD,D835V)) was 99.15%. For the same compound, the “% Inhibition @ 100 nM” value ([19]; FLT3(ITD,F691L)) was 100%, the “Number of kinases inhibited >90%” value [19] was 28 kinases and the inhibition at 0.1 µM [20] was 0%. It also gave an inhibition at 0.1 µM [21] of 88%, an inhibition at 0.1 µM [22] of 90.2% and an inhibition at 0.1 µM [23] of 0%. It also gave an inhibition at 0.1 µM [24] of 0%, an inhibition at 0.1 µM [25] of 2% and an inhibition at 0.1 µM [26] of 0%. The inhibition at 0.1 µM [27] was 12%, the inhibition at 0.1 µM [28] was 2% and the inhibition at 0.1 µM [29] was 14%. It also gave an inhibition at 0.1 µM [30] of 0%, an inhibition at 0.1 µM [31] of 8% and an inhibition at 0.1 µM [32] of 0%.

Compound `CCN(CC)CCNC(=O)c1c(C)[nH]c(/C=C2\C(=O)Nc3ccc(CCC(N)=O)cc32)c1C` [Compound No. 16, (Z)-5-((5-(3-Amino-3-oxopropyl)-2-oxoindolin-3-ylidene)methyl)-N-(2-(diethylamino)ethyl)-2,4-dimethyl-1H-pyrrole-3-carboxamide] has an inhibition at 0.1 µM [1] of 35%, an inhibition at 0.1 µM [2] of 0% and an inhibition at 0.1 µM [3] of 1%. The inhibition at 0.1 µM [4] was 47%, the inhibition at 0.1 µM [5] was 6% and the inhibition at 0.1 µM [6] was 14%. The inhibition at 0.1 µM [7] was 5%, the inhibition at 0.1 µM [8] was 0% and the inhibition at 0.1 µM [9] was 5%. The inhibition at 0.1 µM [10] was 38%, the inhibition at 0.1 µM ([11]; RSK2(Kin.Dom.1-N-terminal)) was 59% and the inhibition at 0.1 µM [12] was 0%. The inhibition at 0.1 µM [13] was 93.6%, the inhibition at 0.1 µM [14] was 27% and the inhibition at 0.1 µM [15] was 0%. For the same compound, the inhibition at 0.1 µM [16] was 36%, the inhibition at 0.1 µM [17] was 60% and the inhibition at 0.1 µM [18] was 33%. For the same compound, the “% Inhibition @ 100 nM” value ([19]; EGFR(L747-E749del, A750P)) was 27%, the “% Inhibition @ 100 nM” value ([19]; EGFR(L747-S752del, P753S)) was 5% and the “% Inhibition @ 100 nM” value ([19]; EGFR(L747-T751del,Sins)) was 11%. The “% Inhibition @ 100 nM” value ([19]; FLT3(ITD)) was 97.2%, the “% Inhibition @ 100 nM” value ([19]; FLT3(ITD,D835V)) was 100% and the “% Inhibition @ 100 nM” value ([19]; FLT3(ITD,F691L)) was 100%. For the same compound, the “Number of kinases inhibited >90%” value [19] was 33 kinases, the inhibition at 0.1 µM [20] was 7% and the inhibition at 0.1 µM [21] was 87%. It also gave an inhibition at 0.1 µM [22] of 90.7%, an inhibition at 0.1 µM [23] of 2.1% and an inhibition at 0.1 µM [24] of 13%. For the same compound, the inhibition at 0.1 µM [25] was 0%, the inhibition at 0.1 µM [26] was 13% and the inhibition at 0.1 µM [27] was 37%. For the same compound, the inhibition at 0.1 µM [28] was 11%, the inhibition at 0.1 µM [29] was 11% and the inhibition at 0.1 µM [30] was 24%. For the same compound, the inhibition at 0.1 µM [31] was 6% and the inhibition at 0.1 µM [32] was 9%.
